Data: patent US20030017462A1, “Control samples for use as standards for evaluating apoptosis in a selected tissue” (priority 2001, published 2003)
“Also recorded” adds a separate entry of the source.

Test system: thymic tissue
Experiment: Thymic apoptosis in microgravity culture (RCCS bioreactor), TUNEL assay
Format: cell-based, Lewis rats
Conditions: for Percent Area of Stain: 1 μM dexamethasone in culture media, microgravity bioreactor, 37° C.; for Ratio DEX/CON (Percent Area of Stain): 1 μM dexamethasone vs control media
Procedure: The following media and solutions were prepared:
1. Phosphate buffered saline (PBS) for rinsing tissue.
2. Control media, consisting of RPMi 1640 containing 15% heat-inactivated fetal bovine serum, 100 μg/mL penicillin, 100 μg/mL streptomycin, 100 μg/mL L-glutamine, and 2.5 μg/mL amphotericin B.
3. Experimental media, consisting of control media containing 1 μM dexamethasone.
Two microgravity bioreactors (Synthecon, Inc., Houston Tex.) were utilized; one containing control media and one containing experimental media.
The thymus was removed from two Lewis rats, washed in cold PBS to remove blood, and stripped of excess tissue. Thymus tissue was cut into sections of about 3 mm^3, while in cold media.
The bioreactors were filled with control (CON) or experimental (DEX) media. Approximately 24 thymus pieces were placed in each bioreactor, for incubation at 37° C. at a rotation speed appropriate for the size of tissue piece and sedimentation rate, in order to provide constant free-fall. Tissue pieces were removed from each bioreactor every half hour for the first 3 hours, then every hour to the sixth hour, then at hour 10 and hour 24.
Tissue was fixed in 10% neutral buffered formalin or Histochoice™ (Amresco, Inc., Solon Ohio), processed to paraffin and sectioned for histochemical analysis. Formalin-fixed sections were stained with hematoxylin and eosin. Immunohistochemical staining for Lewis Y expression was performed with Histochoice TM fixed samples on a DAKO autostainer, using a monoclonal mouse anti-human Lewis γ antibody (DAKO, Carpinteria Calif.). A peroxidase labeled streptavidin-biotin detection system (Zymed, So. San Francisco Calif.) and diaminobenzidine (DAB) chromagen were used.
In situ labeling of apoptosis was measured by terminal deoxynucleotidyl transferase mediated dUTP nick end labeling (TUNEL) method with a cell death detection kit (Boehringer Mannheim Gmbh, Mannheim, Germany). Using digital image analysis, immunostained sections were analyzed for intensity stain index (ISI=[ΣP0×I0]/total tissue area in pixels), where P0=number of pixels at each intensity and I0=the intensity units (Doolin et al., J. Surg. Res. 59: 191-197, 1995). TUNEL was quantified as total apoptotic cell number divided by total tissue area.

C[C@@H]1C[C@H]2[C@@H]3CCC4=CC(=O)C=C[C@]4(C)[C@@]3(F)[C@@H](O)C[C@]2(C)[C@@]1(O)C(=O)CO [DEX, dexamethasone]
Percent Area of Stain (time 0 hours): 6.04% | Percent Area of Stain (time 3 hours): 21.68% | Percent Area of Stain (time 6 hours): 33.29% | Percent Area of Stain (time 10 hours): 43.82% | Percent Area of Stain (time 24 hours): 43.30% | Effect on rate of apoptosis of thymic tissue (1 μM dexamethasone in culture medium, RCCS bioreactor, compared with control culture): increases the rate of apoptosis; also recorded: increased the rate of apoptosis up to 10 hours post-initiation | Ratio DEX/CON (Percent Area of Stain) (time 0 hours): 1.00 | Ratio DEX/CON (Percent Area of Stain) (time 3 hours): 1.46 | Ratio DEX/CON (Percent Area of Stain) (time 6 hours): 1.58 | Ratio DEX/CON (Percent Area of Stain) (time 10 hours): 1.37 | Ratio DEX/CON (Percent Area of Stain) (time 24 hours): 0.87 | Time to maximum level of apoptosis, as measured by TUNEL (thymic tissue in RCCS bioreactor in the presence of dexamethasone (24 hours without)): 10 h
